Reference: patent publication US11708366B2, “Heteroaryl substituted spiropiperidinyl derivatives and pharmaceutical uses thereof” (Novartis AG, priority 2020, dated 2023)

What follows are compounds tested against LTC4S (Homo sapiens (Human), UniProt Q16873) (assay: Human whole blood HTRF assay (LTC4 release after calcium ionophore A23187)). Details: human whole blood diluted 1:3, 4 h incubation, calcium ionophore A23187 stimulation, LTC4 by HTRF; read-out: human whole blood HTRF IC50.
Type: cell-based

Row | SMILES | IC50
1 | CC(C)(O)c1nc(N2CCC3(CCCC(=O)N3c3ccc(F)c(F)c3)CC2)cc(-n2cc(C(F)(F)F)cn2)n1 [Example 65, 1-(3,4-difluorophenyl)-9-(2-(2-hydroxypropan-2-yl)-6-(4-(trifluoromethyl)-1H-pyrazol-1-yl)pyrimidin-4-yl)1,9-diazaspiro[5.5]undecane-2-one] | 1 nM
2 | O=C1CCCC2(CCN(c3cc(-n4cc(C(F)(F)F)cn4)nc(CO)n3)CC2)N1c1ccc(F)c(F)c1 [Example 66, 1-(3,4-difluorophenyl)-9-(2-(hydroxymethyl)-6-(4-(trifluoromethyl)-1H-pyrazol-1-yl)pyrimidin-4-yl)1,9-diazaspiro[5.5]undecane-2-one] | 1 nM
3 | NC(=O)c1nc(N2CCC3(CCCC(=O)N3c3ccc(F)c(F)c3)CC2)cc(-n2cc(C(F)(F)F)cn2)n1 [Example 68] | 120 nM
4 | O=C1CCCC2(CCN(c3cc(-n4cc(C(F)(F)F)cn4)nc(Cl)n3)CC2)N1c1ccc(F)c(F)c1 [Example 69, 9-(2-chloro-6-(4-(trifluoromethyl)-1H-pyrazol-1-yl)pyrimidin-4-yl)-1-(3,4-difluorophenyl)-1,9-diazaspiro[5.5]undecan-2-one] | 35 nM
5 | O=C1CCCC2(CCN(c3cc(O[C@@H]4CCOC4)nc(Cl)n3)CC2)N1c1ccc(F)c(F)c1 [Example 70, (R)-9-(2-chloro-6-((tetrahydrofuran-3-yl)oxy)pyrimidin-4-yl)-1-(3,4-difluorophenyl)-1,9-diazaspiro[5.5]undecan-2-one] | 110 nM
6 | O=C1CCCC2(CCN(c3cc(O[C@H]4CCOC4)nc(Cl)n3)CC2)N1c1ccc(F)c(F)c1 [Example 71, (S)-9-(2-chloro-6-((tetrahydrofuran-3-yl)oxy)pyrimidin-4-yl)-1-(3,4-difluorophenyl)-1,9-diazaspiro[5.5]undecan-2-one] | 580 nM
7 | O=C1CCCC2(CCN(c3nc(Cl)cc(O[C@@H]4CCOC4)n3)CC2)N1c1ccc(F)c(F)c1 [Example 72, (R)-9-(4-chloro-6-((tetrahydrofuran-3-yl)oxy)pyrimidin-2-yl)-1-(3,4-difluorophenyl)-1,9-diazaspiro[5.5]undecan-2-one] | 760 nM
8 | O=C1CCCC2(CCN(c3cc(-n4cc(F)cn4)nc(N4CCOCC4)n3)CC2)N1c1ccc(F)c(F)c1 [Example 73, 1-(3,4-difluorophenyl)-9-(6-(4-fluoro-1H-pyrazol-1-yl)-2-morpholinopyrimidin-4-yl)-1,9-diazaspiro[5.5]undecan-2-one] | 68 nM
9 | Nc1nc(C2=CCC(F)(F)CC2)cc(N2CCC3(CCCC(=O)N3c3ccc(F)c(F)c3)CC2)n1 [Example 74, 9-(2-amino-6-(4,4-difluorocyclohex-1-en-1-yl)pyrimidin-4-yl)-1-(3,4-difluorophenyl)-1,9-diazaspiro[5.5]undecan-2-one] | 4 nM
10 | Nc1nc(-c2ccc(F)cc2)cc(N2CCC3(CCCC(=O)N3c3ccc(F)c(F)c3)CC2)n1 [Example 75] | 4 nM
11 | Nc1nc(N2CCC3(CCCC(=O)N3c3ccc(F)c(F)c3)CC2)cc(C(F)(F)F)n1 [Example 76, 9-(2-amino-6-(trifluoromethyl)pyrimidin-4-yl)-1-(3,4-difluorophenyl)-1,9-diazaspiro[5.5]undecan-2-one] | 57 nM
12 | Nc1nc(N2CCC3(CCCC(=O)N3c3ccc(F)c(F)c3)CC2)cc(C(F)(F)C(F)(F)F)n1 [Example 77, 9-(2-amino-6-(perfluoroethyl)pyrimidin-4-yl)-1-(3,4-difluorophenyl)-1,9-diazaspiro[5.5]undecane-2-one] | 31 nM
13 | Nc1nc(N2CCC3(CCCC(=O)N3c3ccc(F)c(F)c3)CC2)cc(C(F)(F)C(F)F)n1 [Example 78, 9-(2-amino-6-(1,1,2,2-tetrafluoroethyl)pyrimidin-4-yl)-1-(3,4-difluorophenyl)-1,9-diazaspiro[5.5]undecan-2-one] | 24 nM
14 | O=C1CCCC2(CCN(c3cc(C(F)(F)C(F)(F)F)nc(CO)n3)CC2)N1c1ccc(F)c(F)c1 [Example 79, 1-(3,4-difluorophenyl)-9-(2-(hydroxymethyl)-6-(perfluoroethyl)pyrimidin-4-yl)-1,9-diazaspiro[5.5]undecane-2-one] | 56 nM
15 | CC(C)(O)c1nc(N2CCC3(CCCC(=O)N3c3ccc(F)c(F)c3)CC2)cc(C(F)(F)F)n1 [Example 80, 1-(3,4-difluorophenyl)-9-(2-(2-hydroxypropan-2-yl)-6-(trifluoromethyl)pyrimidin-4-yl)-1,9-diazaspiro[5.5]undecan-2-one] | 24 nM
16 | CCCOc1ccnc(N2CCC3(CCCC(=O)N3c3ccc(F)c(F)c3)CC2)n1 [Example 85, 1-(3,4-difluorophenyl)-9-(4-propoxypyrimidin-2-yl)-1,9-diazaspiro[5.5]undecan-2-one] | 430 nM
17 | O=C1CCCC2(CCN(c3cc(OC4CCOCC4)ncn3)CC2)N1c1ccc(F)c(F)c1 [Example 87, 1-(3,4-difluorophenyl)-9-(6-((tetrahydro-2H-pyran-4-yl)oxy)pyrimidin-4-yl)-1,9-diazaspiro[5.5]undecan-2-one] | 7 nM
18 | O=C1CCCC2(CCN(c3cc(OCC(F)(F)F)nc(Cl)n3)CC2)N1c1ccc(F)c(F)c1 [Example 88, 9-(2-chloro-6-(2,2,2-trifluoroethoxy)pyrimidin-4-yl)-1-(3,4-difluorophenyl)-1,9-diazaspiro[5.5]undecan-2-one] | 1370 nM
19 | Nc1nc(OC2CC(F)(F)C2)cc(N2CCC3(CCCC(=O)N3c3ccc(F)c(F)c3)CC2)n1 [Example 90, 9-(2-amino-6-(3,3-difluorocyclobutoxy)pyrimidin-4-yl)-1-(3,4-difluorophenyl)-1,9-diazaspiro[5.5]undecan-2-one] | 4 nM
20 | Nc1nc(OCC(F)(F)F)cc(N2CCC3(CCCC(=O)N3c3ccc(F)c(F)c3)CC2)n1 [Example 91, 9-(2-amino-6-(2,2,2-trifluoroethoxy)pyrimidin-4-yl)-1-(3,4-difluorophenyl)-1,9-diazaspiro[5.5]undecan-2-one] | 3 nM
21 | [2H]C([2H])(Oc1cc(N2CCC3(CCCC(=O)N3c3ccc(F)c(F)c3)CC2)nc(N)n1)C(F)(F)F [Example 92, 9-(2-amino-6-(2,2,2-trifluoroethoxy-1,1-d2)pyrimidin-4-yl)-1-(3,4-difluorophenyl)-1,9-diazaspiro[5.5]undecan-2-one] | 5 nM
22 | CC(C)Oc1cc(N2CCC3(CCCC(=O)N3c3ccc(F)c(F)c3)CC2)nc(N)n1 [Example 93, 9-(2-amino-6-isopropoxypyrirnidin-4-yl)-1-(3,4-difluorophenyl)-1,9-diazaspiro[5.5]undecan-2-one] | 10 nM
23 | Nc1nc(OCCO)cc(N2CCC3(CCCC(=O)N3c3ccc(F)c(F)c3)CC2)n1 [Example 94, 9-(2-amino-6-(2-hydroxyethoxy)pyrimidin-4-yl)-1-(3,4-difluorophenyl)-1,9-diazaspiro[5.5]undecan-2-one] | 830 nM
24 | Nc1nc(OCC(F)(F)C(F)(F)F)cc(N2CCC3(CCCC(=O)N3c3ccc(F)c(F)c3)CC2)n1 [Example 97] | 3 nM
25 | Nc1nc(O[C@@H]2CCCOC2)cc(N2CCC3(CCCC(=O)N3c3ccc(F)c(F)c3)CC2)n1 [Example 100, (R)-9-(2-amino-6-((tetrahydro-2H-pyran-3-yl)oxy)pyrimidin-4-yl)-1-(3,4-difluorophenyl)-1,9-diazaspiro[5.5]undecan-2-one] | 2 nM
